Test results published in US20230399341A1, “7-PHENYL SUBSTITUTED 2-AMINOQUINAZOLINE INHIBITORS OF HPK1” (MERCK SHARP & DOHME LLC, priority 2020, published 2023).

These molecules were tested against T1, Human HPK1, catalytic domain (Homo sapiens, UniProt Q92918) (assay: HPK1-SLP76 TR-FRET Assay). Details: 75 pM HPK1, ATP 10 uM, SLP76 10 nM, 30 min pre-incubation, 60 min reaction.
T1 sequence (Q92918 1-346): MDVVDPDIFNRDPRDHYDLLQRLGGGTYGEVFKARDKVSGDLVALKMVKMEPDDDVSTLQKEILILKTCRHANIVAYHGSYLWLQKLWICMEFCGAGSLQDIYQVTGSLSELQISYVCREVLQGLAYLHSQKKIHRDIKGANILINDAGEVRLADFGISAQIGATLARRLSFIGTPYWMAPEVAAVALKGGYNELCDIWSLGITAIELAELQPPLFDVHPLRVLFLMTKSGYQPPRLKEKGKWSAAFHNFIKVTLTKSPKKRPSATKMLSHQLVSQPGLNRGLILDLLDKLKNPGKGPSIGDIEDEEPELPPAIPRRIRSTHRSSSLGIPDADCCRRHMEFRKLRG
Type: biochemical

Compound | IC50 [nM]
COc1cc2c(cc1Nc1ncc3ccc(NCC4=NS(=O)(=O)c5cc(C)ccc5N4)cc3n1)CN(C)CC2 [Compound 3-18, 3-[({2-[(6-methoxy-2-methyl-1,2,3,4-tetrahydroisoquinolin-7-yl)amino]quinazolin-7-yl}-amino)methyl]-7-methyl-1lambda~6~,2,4-benzothia-diazine-1,1(4H)-dione] | 204
COc1cc2c(cc1Nc1ncc3ccc(-c4cnc5c(c4)OCCN5C)cc3n1)CNCC2 [Compound 1-29, N-(6-methoxy-1,2,3,4-tetrahydroisoquinolin-7-yl)-7-(4-methyl-3,4-dihydro-2H-pyrido[3,2-b][1,4]oxazin-7-yl)quinazolin-2-amine] | 85.8
CCC1COC(=O)N1c1ccc2cnc(Nc3cc4c(cc3OC)CCN(C)C4)nc2c1 (single isomer, unassigned) [Compound 3-14, (S or R)-4-ethyl-3-{2-[(6-methoxy-2-methyl-1,2,3,4-tetrahydroisoquinolin-7-yl)amino]quinazolin-7-yl}-1,3-oxazolidin-2-one] | 24.6
COc1cc2c(cc1Nc1ncc3ccc(-c4ccc5c(c4)COCC5)cc3n1)CNCC2 [Compound 1-76, 7-(3,4-dihydro-1H-2-benzopyran-7-yl)-N-(6-methoxy-1,2,3,4-tetrahydroisoquinolin-7-yl)quinazolin-2-amine] | 218
COc1cc(S(N)(=O)=O)ccc1Nc1ncc2c(N)c(F)c(-c3cnc4c(c3C)NCCO4)cc2n1 [Compound 2-6, 4-{[5-amino-6-fluoro-7-(8-methyl-2,3-dihydro-1H-pyrido[2,3-b][1,4]oxazin-7-yl)quinazolin-2-yl]amino}-3-methoxybenzene-1-sulfonamide] | 48.1
COc1cc2c(cc1Nc1ncc3c(N)c(F)c(-c4ccccc4-c4ccnn4C)cc3n1)CN(C)CC2 [Compound 2-65, 6-fluoro-N~2~-(6-methoxy-2-methyl-1,2,3,4-tetrahydroisoquinolin-7-yl)-7-[2-(1-methyl-1H-pyrazol-5-yl)phenyl]quinazoline-2,5-diamine] | 16.6
COc1nc(C2(C#N)CC2)ccc1Nc1ncc2c(N)c(F)c(-c3cnc4c(c3C)NCCO4)cc2n1 [Compound 2-68, 1-(5-{[5-amino-6-fluoro-7-(8-methyl-2,3-dihydro-1H-pyrido[2,3-b][1,4]oxazin-7-yl)quinazolin-2-yl]amino}-6-methoxypyridin-2-yl)cyclopropane-1-carbonitrile] | 14.3
COc1cc2c(cc1Nc1ncc3ccc(-c4cncc(C(=O)N5CCOCC5)c4)cc3n1)CNCC2 [Compound 1-47, (5-{2-[(6-methoxy-1,2,3,4-tetrahydroisoquinolin-7-yl)amino]quinazolin-7-yl}pyridin-3-yl)(morpholin-4-yl)methanone] | 273
COc1cc2c(cc1Nc1ncc3ccc(-c4ccc5c(c4)OCCO5)cc3n1)CNCC2 [Compound 1-70, 7-(2,3-dihydro-1,4-benzodioxan-6-yl)-N-(6-methoxy-1,2,3,4-tetrahydroisoquinolin-7-yl)quinazolin-2-amine] | 140
Cc1c(-c2cc3nc(Nc4ccccc4Cl)ncc3c(N)c2F)cnc2c1NCCO2 [Compound 2-31, N~2~-(2-chlorophenyl)-6-fluoro-7-(8-methyl-2,3-dihydro-1H-pyrido[2,3-b][1,4]oxazin-7-yl)quinazoline-2,5-diamine] | 4.62

These reach a lower IC50. Values come first.

IC50 [nM] | Compound
3.24 | CCC1COC(=O)N1c1cc(N)c2cnc(Nc3cc4c(cc3OC)CCN(C)C4)nc2c1 (single isomer, unassigned) [Compound 3-15, (S or R)-3-{5-amino-2-[(6-methoxy-2-methyl-1,2,3,4-tetrahydroisoquinolin-7-yl)amino]quinazolin-7-yl}-4-ethyl-1,3-oxazolidin-2-one]
2.32 | COc1cc2c(cc1Nc1ncc3cc(F)c(-c4cnc5c(c4C)NCCO5)cc3n1)CN(C)CC2 [Compound 1-95, 6-fluoro-N-(6-methoxy-2-methyl-1,2,3,4-tetrahydroisoquinolin-7-yl)-7-(8-methyl-2,3-dihydro-1H-pyrido[2,3-b][1,4]oxazin-7-yl)quinazolin-2-amine]
1.51 | COc1cc2c(cc1Nc1ncc3ccc(-c4cnc5c(c4C)NCCO5)cc3n1)CN(C)CC2 [Compound 1-4, N-(6-methoxy-2-methyl-1,2,3,4-tetrahydroisoquinolin-7-yl)-7-(8-methyl-2,3-dihydro-1H-pyrido[2,3-b][1,4]oxazin-7-yl)quinazolin-2-amine]
0.487 | Cc1c(-c2c(F)c(N)c3cnc(Nc4ccc(CC(C)(C)O)cc4)nc3c2Cl)cnc2c1NCCO2 [Compound 2-164, 1-(4-{[5-amino-8-chloro-6-fluoro-7-(8-methyl-2,3-dihydro-1H-pyrido[2,3-b][1,4]oxazin-7-yl)quinazolin-2-yl]amino}phenyl)-2-methylpropan-2-ol]
0.125 | CC(=O)NC1CCc2cc(Nc3ncc4c(N)c(F)c(-c5cnc6c(c5C)NCCO6)cc4n3)ccc21 (single isomer, unassigned) [Compound 2-10, (S or R)—N-(5-((5-amino-6-fluoro-7-(8-methyl-2,3-dihydro-1H-pyrido[2,3-b][1,4]oxazin-7-yl)quinazolin-2-yl)amino)-2,3-dihydro-1H-inden-1-yl)acetamide]
0.0825 | Cc1c(-c2c(F)c(N)c3cnc(Nc4ccc5c(c4)CN(C(C)C)CC5)nc3c2Cl)cnc2c1NCCO2 [Compound 2-96, (+ or −)-8-chloro-6-fluoro-7-(8-methyl-2,3-dihydro-1H-pyrido[2,3-b[1,4]oxazin-7-yl)-N~2~- [2-(propan-2-yl)-1,2,3,4-tetrahydroisoquinolin-7-yl]quinazoline-2,5-diamine]
0.0791 | COC1CC(NC(=O)c2ccc(Nc3ncc4c(N)c(F)c(-c5cnc6c(c5C)NCCO6)cc4n3)cc2)C1 (stereo not drawn) [Compound 2-58, 4-{[5-amino-6-fluoro-7-(8-methyl-2,3-dihydro-1H-pyrido[2,3-b][1,4]oxazin-7-yl)quinazolin-2-yl]amino}-N-(3-methoxycyclobutyl) benzamide]
0.0508 | Cc1c(-c2cc3nc(Nc4cc5c(cc4F)CCN(C)C5)ncc3c(N)c2F)cnc2c1NCCO2 [Compound 2-59, 6-fluoro-N~2~-(6-fluoro-2-methyl-1,2,3,4-tetrahydroisoquinolin-7-yl)-7-(8-methyl-2,3-dihydro-1H-pyrido[2,3-b][1,4]oxazin-7-yl)quinazoline-2,5-diamine]
0.038 | Cc1c(-c2cc3nc(Nc4ccc5c(c4)CCN(C)CC5)ncc3c(N)c2F)cnc2c1NCCO2 [Compound 2-119, 6-fluoro-7-(8-methyl-2,3-dihydro-1H-pyrido[2,3-b][1,4]oxazin-7-yl)-N~2~- (3-methyl-2,3,4,5-tetrahydro-1H-3-benzazepin-7-yl)quinazoline-2,5-diamine]
0.037 | CS(=O)(=O)Cc1ccc(Nc2ncc3c(N)c(F)c(-c4cnc5c(c4Cl)NCCO5)cc3n2)cc1 [Compound 2-123, 7-(8-chloro-2,3-dihydro-1H-pyrido[2,3-b][1,4]oxazin-7-yl)-6-fluoro-N2-(4-((methylsulfonyl)methyl)phenyl)quinazoline-2,5-diamine]
0.0248 | Cc1c(-c2c(F)c(N)c3cnc(Nc4ccc5c(c4)CN(C)CC5)nc3c2Cl)cnc2c1NCCO2 (single isomer, unassigned) [Compound 2-180, (+ or −)-8-chloro-6-fluoro-7-(8-methyl-2,3-dihydro-1H-pyrido[2,3-b][1,4]oxazin-7-yl)-N~2~- (2-methyl-1,2,3,4-tetrahydroisoquinolin-7-yl)quinazoline-2,5-diamine]
